From PubChem BioAssay (NCI) come the findings set out here.

Where “and” joins values, the source holds several entries; their conditions need not be identical. Equal values may be shown once.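 1) Cells in 96-well plates. 2) Compound, 48 h, 5 concentrations. 3) Linear interpolation between surrounding doses. 4) Unreached endpoint = highest concentration. Abbreviation: GI50, concentration required for 50% inhibition of growth. TGI marks complete inhibition of growth.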 Some results are limits rather than exact numbers.

Test systems include CAKI-1 renal; HOP-92 NSCLC; IGROV1 ovarian; LOX IMVI melanoma; MOLT-4 leukemia; OVCAR-5 ovarian; SF-295 CNS; SK-MEL-5 melanoma; SW-620 colon; UACC-257 melanoma.
What all share (assay): inhibition of tumour cell growth, NCI panel, 48 h

In the case of `COc1ccc(C2S/C(=C\c3ccccc3O)C(=O)N2NC(=O)Cc2ccccc2)cc1` (stereo not given), the TGI in the test with CAKI-1 renal, in the test with HOP-92 NSCLC, in the test with IGROV1 ovarian, with LOX IMVI melanoma, in the test with MOLT-4 leukemia and in the test with OVCAR-5 ovarian was greater than 100 µM throughout. The TGI in the test with SF-295 CNS, in the test with SK-MEL-5 melanoma, in the test with SW-620 colon and in the test on UACC-257 melanoma was greater than 100 µM each time.
For `O=c1n(CC2CO2)c(=O)n(CC2CO2)c(=O)n1CC1CO1` (stereo not given), the GI50 in the test on CAKI-1 renal is 0.81 µM; with HOP-92 NSCLC, 18 µM and 7.22 µM; in the test with IGROV1 ovarian, 24.9 µM and 7.31 µM; in the test on LOX IMVI melanoma, 12.3 µM and 6.12 µM; in the test with MOLT-4 leukemia it was 5.09 µM and 2.95 µM; with OVCAR-5 ovarian it was 18.2 µM and 19.9 µM. Moreover, the GI50 in the test with SF-295 CNS is 4.18 µM; in the test on SK-MEL-5 melanoma it was 16.8 µM and 25.3 µM and 9.6 µM; with SW-620 colon it was 26.3 µM and 13.2 µM; in the test on UACC-257 melanoma it was 15.4 µM. The TGI was 52.1 µM and 64.9 µM with CAKI-1 renal; 63.7 µM and 111 µM and > 100 µM in the test with HOP-92 NSCLC; 96 µM and > 100 µM in the test with IGROV1 ovarian; 47.5 µM and 102 µM and > 100 µM in the test with LOX IMVI melanoma; 210 µM and > 100 µM with MOLT-4 leukemia; 56 µM and 118 µM and 40.1 µM in the test with OVCAR-5 ovarian. For the same molecule, the TGI with SF-295 CNS was 34.1 µM and 126 µM and > 100 µM; with SK-MEL-5 melanoma, 37.3 µM and 79.6 µM and 75.6 µM; in the test on SW-620 colon it was 228 µM and > 100 µM; in the test with UACC-257 melanoma it was 38.4 µM and 109 µM.
As for `CC(C)(C)C(=O)OCOP(=O)(OCOC(=O)C(C)(C)C)C1CCCN(O)C1=O` (stereo not given), the GI50 was 0.324 µM in the test with CAKI-1 renal; 0.695 µM in the test with HOP-92 NSCLC; 0.393 µM in the test on IGROV1 ovarian; 0.465 µM in the test on LOX IMVI melanoma; 0.431 µM with MOLT-4 leukemia; 2.01 µM in the test with OVCAR-5 ovarian. For the same molecule, the GI50 in the test with SF-295 CNS was 3.9 µM; with SK-MEL-5 melanoma, 0.324 µM; in the test with SW-620 colon, 0.493 µM; in the test on UACC-257 melanoma, 1.19 µM. Besides, the TGI in the test on CAKI-1 renal is greater than 100 µM; in the test on HOP-92 NSCLC, 51.5 µM; in the test on IGROV1 ovarian, 2.73 µM; in the test on LOX IMVI melanoma, 12.3 µM; in the test with MOLT-4 leukemia it was 2.69 µM; with OVCAR-5 ovarian, 62.7 µM. In addition, the TGI with SF-295 CNS was greater than 100 µM; in the test with SK-MEL-5 melanoma, 1.58 µM; with SW-620 colon, 42.6 µM; in the test on UACC-257 melanoma it was 13.5 µM.
For `NC(=NCCCOc1ccc(Cl)cc1)Nc1ccc(C(F)(F)F)cc1`, the GI50 in the test on CAKI-1 renal was 2.48 µM; in the test on HOP-92 NSCLC it was 0.849 µM; in the test on IGROV1 ovarian, 1.47 µM; in the test on LOX IMVI melanoma it was 1.46 µM; with MOLT-4 leukemia, 1.41 µM; in the test on OVCAR-5 ovarian it was 2.67 µM. Also, the GI50 in the test on SF-295 CNS is 1.7 µM; in the test on SK-MEL-5 melanoma, 1.61 µM; in the test on SW-620 colon, 1.99 µM; in the test with UACC-257 melanoma, 1.72 µM. For the same molecule, the TGI with CAKI-1 renal was found to be 9.03 µM; with HOP-92 NSCLC it was 4.63 µM; with IGROV1 ovarian, 4.12 µM; in the test on LOX IMVI melanoma it was 2.77 µM; with MOLT-4 leukemia it was 5 µM; in the test with OVCAR-5 ovarian, 13.7 µM. Moreover, the TGI stood at 3.28 µM in the test with SF-295 CNS, 2.97 µM with SK-MEL-5 melanoma, 5.99 µM in the test on SW-620 colon and 3.56 µM with UACC-257 melanoma.
Consider `COc1ccc(OC)c(NC(=O)C(=O)NNC(=O)c2sc(NNC(C)=O)nc2C)c1`, for which the TGI with CAKI-1 renal is greater than 100 µM; with HOP-92 NSCLC, 39.2 µM; in the test on IGROV1 ovarian, greater than 100 µM; in the test with LOX IMVI melanoma it was 83.3 µM; with MOLT-4 leukemia, 47.1 µM; in the test with OVCAR-5 ovarian, greater than 100 µM. The TGI in the test on SF-295 CNS was greater than 100 µM; in the test on SK-MEL-5 melanoma, greater than 100 µM; in the test on SW-620 colon, 46.6 µM; in the test on UACC-257 melanoma, 61.5 µM.
Consider `C[As](C)SC1OC(CO)C(O)C1O` (stereo not given), for which the GI50 is 0.0487 µM with CAKI-1 renal; 0.0884 µM in the test on HOP-92 NSCLC; 1.32 µM in the test with IGROV1 ovarian; 0.445 µM in the test with LOX IMVI melanoma; 0.174 µM with MOLT-4 leukemia; 0.864 µM in the test with OVCAR-5 ovarian. The GI50 with SF-295 CNS is 2.28 µM; in the test on SK-MEL-5 melanoma, 0.215 µM; in the test with SW-620 colon, 0.391 µM; in the test on UACC-257 melanoma it was 1.72 µM. Also, the TGI with CAKI-1 renal amounted to 0.402 µM; with HOP-92 NSCLC, 0.955 µM; with IGROV1 ovarian it was 6.56 µM; in the test with LOX IMVI melanoma, 1.75 µM; with MOLT-4 leukemia, 0.957 µM; in the test on OVCAR-5 ovarian it was 5.33 µM. The TGI in the test with SF-295 CNS stood at 7.16 µM; in the test on SK-MEL-5 melanoma, 0.583 µM; with SW-620 colon it was 1.61 µM; in the test with UACC-257 melanoma it was 13.6 µM.
With `O=S(=O)([O-])c1ccc2c(c1)-c1nc-2nc2[n-]c(nc3nc(nc4[n-]c(n1)c1ccc(S(=O)(=O)[O-])cc41)-c1cc(S(=O)(=O)[O-])ccc1-3)c1ccc(S(=O)(=O)[O-])cc21.[Cu+2].[Na+]`, the GI50 in the test on CAKI-1 renal is greater than 100 µM; in the test with HOP-92 NSCLC, 38.9 µM; in the test with IGROV1 ovarian it was greater than 100 µM; in the test on LOX IMVI melanoma it was 3.29 µM; with MOLT-4 leukemia it was 2.19 µM; with OVCAR-5 ovarian, greater than 100 µM. For the same molecule, the GI50 with SF-295 CNS was 98.4 µM; in the test with SK-MEL-5 melanoma, greater than 100 µM; in the test with SW-620 colon, 10.8 µM; with UACC-257 melanoma, greater than 100 µM. Also, the TGI in the test with CAKI-1 renal, with HOP-92 NSCLC, with IGROV1 ovarian, in the test on LOX IMVI melanoma, in the test with MOLT-4 leukemia and with OVCAR-5 ovarian was greater than 100 µM in each case. Besides, the TGI in the test on SF-295 CNS was greater than 100 µM; in the test with SK-MEL-5 melanoma, greater than 100 µM; in the test on SW-620 colon it was greater than 71 µM; with UACC-257 melanoma it was greater than 100 µM.
As for `C[C@H]1c2cccc(O)c2C(O)=C2C(=O)[C@]3(O)C(O)=C(C(N)=O)C(=O)[C@@H](N(C)C)[C@@H]3[C@@H](O)[C@@H]21`, the GI50 in the test on CAKI-1 renal is 2.08 µM; in the test with HOP-92 NSCLC it was 2.35 µM; with IGROV1 ovarian it was 2.86 µM; in the test on LOX IMVI melanoma, 2.75 µM; in the test on MOLT-4 leukemia it was 3.57 µM; with OVCAR-5 ovarian, 5.22 µM. The GI50 in the test on SF-295 CNS is 2 µM; in the test with SK-MEL-5 melanoma, 1.9 µM; in the test on SW-620 colon it was 3.02 µM; in the test on UACC-257 melanoma, 3.19 µM. The TGI is 8.67 µM in the test on CAKI-1 renal; 6.18 µM in the test with HOP-92 NSCLC; 9.26 µM in the test with IGROV1 ovarian; 10 µM in the test with LOX IMVI melanoma; 15 µM in the test on MOLT-4 leukemia; 95.4 µM in the test with OVCAR-5 ovarian. In addition, the TGI in the test with SF-295 CNS stood at 5.69 µM; in the test on SK-MEL-5 melanoma, 4.12 µM; in the test on SW-620 colon, 14.6 µM; in the test on UACC-257 melanoma it was 13.9 µM.
